Patent US10730889B2, “Amido spirocyclic amide and sulfonamide derivatives” (Forma TM, LLC, priority 2012, dated 2020)
Like-named read-outs stand apart in the source and are kept apart here.

Test system: A2780 cells
Experiment: In-vitro cell proliferation assay (SRB, 72 hours)
Type: cell-based
Conditions: read-out: Cell Proliferation (IC50)
[1] = Homo sapiens, A2780, 72 h, A2780 cells, 72 hours, SRB

Compound: Cc1nc(C(=O)N2CCC3(CC2)CC3CNC(=O)c2cc3ccncc3o2)c(C)o1 (centres unmarked) [Example 334, N-[[6-(2,5-dimethyloxazole-4-carbonyl)-6-azaspiro[2.5]octan-2-yl]methyl]furo[2,3-c]pyridine-2-carboxamide]
- IC50 [1]: 56.5 nM

Compound: CN1CCN(Cc2ccc(C(=O)N3CCC4(CC3)CC4CNC(=O)N3Cc4ccncc4C3)cc2)CC1 (centres unmarked) [Example 346, N-[[6-[4-[(4-methylpiperazin-1-yl)methyl]benzoyl]-6-azaspiro[2.5]octan-2-yl]methyl]-1,3-dihydropyrrolo[3,4-c]pyridine-2-carboxamide]
- IC50 [1]: 6.01 nM

Compound: CC(=O)Nc1cccc(C(=O)N2CCC3(CC2)CC3CNC(=O)c2cc3ccncc3o2)c1 (centres unmarked) [Example 264, N-[[6-(3-acetamidobenzoyl)-6-azaspiro[2.5]octan-2-yl]methyl]furo[2,3-c]pyridine-2-carboxamide]
- IC50 [1]: 245 nM

Compound: N#Cc1cccc(C(=O)N2CCC3(CC2)CC3CNC(=O)c2cc3ccncc3o2)c1 (centres unmarked) [Example 243, N-[[6-(3-cyanobenzoyl)-6-azaspiro[2.5]octan-2-yl]methyl]furo[2,3-c]pyridine-2-carboxamide]
- IC50 [1]: 434 nM

Compound: Cc1cc(C(=O)N2CCC3(CC2)CC3CNC(=O)c2cc3ccncc3o2)ccn1 (centres unmarked) [Example 121, N-[[6-(2-methylpyridine-4-carbonyl)-6-azaspiro[2.5]octan-2-yl]methyl]furo[2,3-c]pyridine-2-carboxamide]
- IC50 [1]: 1090 nM

Compound: CC(=O)Nc1cccc(C(=O)N2CCC3(CC2)CC3CNC(=O)c2cc3ccncc3o2)n1 (centres unmarked) [Example 135, N-[[6-(6-acetamidopyridine-2-carbonyl)-6-azaspiro[2.5]octan-2-yl]methyl]furo[2,3-c]pyridine-2-carboxamide]
- IC50 [1]: 36.4 nM

Compound: CCc1noc(C)c1C(=O)N1CCC2(CC1)CC2CNC(=O)c1cc2ccncc2o1 (centres unmarked) [Example 136, N-[[6-(3-ethyl-5-methyl-isoxazole-4-carbonyl)-6-azaspiro[2.5]octan-2-yl)methyl]furo[2,3-c]pyridine-2-carboxamide]
- IC50 [1]: 169 nM

Compound: CN1CC(C(=O)N2CCC3(CC2)CC3CNC(=O)c2cc3ccncc3o2)CC1=O (centres unmarked) [Example 56, N-[[6-(1-methyl-5-oxo-pyrrolidine-3-carbonyl)-6-azaspiro[2.5]octan-2-yl]methyl]furo[2,3-c]pyridine-2-carboxamide]
- IC50 [1]: 2000 nM

Compound: O=C(NCC1CC12CCN(C(=O)NCc1cccc(F)c1)CC2)c1cc2ccncc2o1 (centres unmarked) [Example 166, N-[[6-[(3-fluorophenyl)methylcarbamoyl]-6-azaspiro[2.5]octan-2-yl]methyl]furo[2,3-c]pyridine-2-carboxamide]
- IC50 [1]: 2000 nM

Compound: O=C(NCC1CC12CCN(C(=O)C1CC1(F)F)CC2)c1cc2ccncc2o1 (centres unmarked) [Example 58, N-[[6-(2,2-difluorocyclopropanecarbonyl)-6-azaspiro[2.5]octan-2-yl]methyl]furo(2,3-c]pyridine-2-carboxamide]
- IC50 (Homo sapiens, A2780, 72 h): 2000 nM

Compound: O=C(NCC1CC12CCN(C(=O)c1ccc(-n3ccnc3)nc1)CC2)c1cc2ccncc2o1 (centres unmarked) [Example 255, N-[[6-(6-imidazol-1-ylpyridine-3-carbonyl)-6-azaspiro[2.5]octan-2-yl]methyl]furo[2,3-c]pyndine-2-carboxamide]
- IC50 [1]: 179 nM

Compound: Cc1cccnc1C(=O)N1CCC2(CC1)CC2CNC(=O)c1cc2ccncc2o1 (centres unmarked) [Example 231, N-[[6-(3-methylpyridine-2-carbonyl)-6-azaspiro[2.5]octan-2-yl]methyl]furo[2,3-c]pyridine-2-carboxamide]
- IC50 [1]: 516 nM

Compound: O=C(NCC1CC12CCN(C(=O)NCc1ccccc1Cl)CC2)c1cc2ccncc2o1 (centres unmarked) [Example 171, N-[[6-[(2-chlorophenyl)methylcarbamoyl]-6-azaspiro[2.5]octan-2-yl]methyl]furo[2,3-c]pyridine-2-carboxamide]
- IC50 [1]: 2000 nM

Compound: Cc1nc(C)c(C(=O)N2CCC3(CC2)CC3CNC(=O)c2cc3ccncc3o2)o1 (centres unmarked) [Example 128, N-[[6-(2,4-dimethyloxazole-5-carbonyl)-6-azaspiro[2.5]octan-2-yl]methyl]furo[2,3-c]pyridine-2-carboxamide]
- IC50 [1]: 29.2 nM

Compound: CN1CCC(CC(=O)N2CCC3(CC2)CC3CNC(=O)c2cc3ccncc3o2)CC1 (centres unmarked) [Example 149, N-[(6-[2-(1-methyl-4-piperidyl)acetyl]-6-azaspiro[2.5]octan-2-yl]methyl]furo[2,3-c]pyridine-2-carboxamide]
- IC50 [1]: 496 nM

Compound: O=C(NCC1CC12CCN(C(=O)c1cc3ncccn3n1)CC2)c1cc2ccncc2o1 (centres unmarked) [Example 313, N-[[6-(pyrazolo[1,5-a]pyrimidine-2-carbonyl)-6-azaspiro[2.5]octan-2-yl]methyl]furo[2,3-c]pyridine-2-carboxamide]
- IC50 [1]: 15.9 nM

Compound: O=C(Cc1ncccn1)N1CCC2(CC1)CC2CNC(=O)N1Cc2ccncc2C1 (centres unmarked) [Example 286, N-[[6-(2-pyrimidin-2-ylacetyl)-6-azaspiro[2.5]octan-2-yl]methyl]-1,3-dihydropyrrolo[3,4-c]pyridine-2-carboxamide]
- IC50 (Homo sapiens, A2780 cells, 72 hours, SRB): 27 nM

Compound: O=C1CN(CC(=O)N2CCC3(CC2)CC3CNC(=O)c2cc3ccncc3o2)CCN1 (centres unmarked) [Example 91, N-[[6-[2-(3-oxopiperazin-1-yl)acetyl]-6-azaspiro[2.5]octan-2-yl]methyl]furo[2,3-c]pyridine-2-carboxamide]
- IC50 [1]: 2000 nM

Compound: CC1(OC(=O)N2CCC3(CC2)CC3CNC(=O)c2cc3ccncc3o2)COC1 (centres unmarked) [Example 417, (3-methyloxetan-3-yl) 2-[(furo[2,3-c]pyridine-2-carbonylamino)methyl]-6-azaspiro[2.5]octane-6-carboxylate]
- IC50 [1]: 830 nM

Compound: CC(C)OC(=O)N1CCC2(CC1)CC2CNC(=O)c1cc2ccncc2o1 (centres unmarked) [Example 416, isopropyl 2-[(furo[2,3-c]pyridine-2-carbonylamino)methyl]-6-azaspiro[2.5]octane-6-carboxylate]
- IC50 [1]: 461 nM

Compound: CN1CCN(Cc2ccc(C(=O)N3CCC4(CC3)CC4CNC(=O)c3cc4ccncc4o3)cc2)CC1 (centres unmarked) [Example 86, N-[[6-[4-[(4-methylpiperazin-1-yl)methyl]benzoyl]-6-azaspiro[2.5]octan-2-yl]methyl]furo[2,3-c]pyridine-2-carboxamide]
- IC50 [1]: 4.53 nM

Compound: O=C(Cc1cncnc1)N1CCC2(CC1)CC2CNC(=O)N1Cc2ccncc2C1 (centres unmarked) [Example 407, N-[[6-(2-pyrimidin-5-ylacetyl)-6-azaspiro[2.5]octan-2-yl]methyl]-1,3-dihydropyrrolo[3,4-c]pyridine-2-carboxamide]
- IC50 [1]: 72.6 nM

Compound: CC(C)(C)c1cc(C(=O)N2CCC3(CC2)CC3CNC(=O)c2cc3ccncc3o2)[nH]n1 (centres unmarked) [Example 322, N-[[6-(3-tert-butyl-1H-pyrazole-5-carbonyl)-6-azaspiro[2.5]octan-2-yl]methyl]furo[2,3-c]pyridine-2-carboxamide]
- IC50 [1]: 15.1 nM

Compound: Cc1nocc1C(=O)N1CCC2(CC1)CC2CNC(=O)c1cc2ccncc2o1 (centres unmarked) [Example 139, N-[[6-(3-methylisoxazole-4-carbonyl)-6-azaspiro[2.5]octan-2-yl]methyl]furo[2,3-c]pyridine-2-carboxamide]
- IC50 [1]: 2000 nM

Compound: Cc1nc(C)c(C(=O)N2CCC3(CC2)CC3CNC(=O)c2cc3cnccc3[nH]2)o1 (centres unmarked) [Example 370, N-[[6-(2,4-dimethyloxazole-5-carbonyl)-6-azaspiro[2.5]octan-2-yl]methyl]-1H-pyrrolo[3,2-c]pyridine 2-carboxamide]
- IC50 [1]: 115 nM

Compound: NS(=O)(=O)c1ccc(C(=O)N2CCC3(CC2)CC3CNC(=O)c2cc3ccncc3o2)cc1 (centres unmarked) [Example 259, N-[[6-(4-sulfamoylbenzoyl)-6-azaspiro[2.5]octan-2-yl]methyl]furo[2,3-c]pyridine-2-carboxamide]
- IC50 [1]: 1200 nM

Compound: O=C(NCC1CC12CCN(C(=O)c1cc(C(F)(F)F)ccn1)CC2)c1cc2ccncc2o1 (centres unmarked) [Example 256, N-[[6-[4-(trifluoromethyl]pyridine-2-carbonyl]6-azaspiro[2.5]octan-2-yl]methyl]furo[2,3-c]pyridine-2-carboxamide]
- IC50 [1]: 596 nM

Compound: O=C(NCC1CC12CCN(C(=O)c1cc(C3CC3)on1)CC2)c1cc2ccncc2o1 (centres unmarked) [Example 327, N-[[6-(5-cyclopropylisoxazole-3-carbonyl)-6-azaspiro[2.5]octan-2-yl]methyl]furo[2,3-c]pyridine-2-carboxamide]
- IC50 [1]: 77.6 nM

Compound: Cc1ccnc(C(=O)N2CCC3(CC2)CC3CNC(=O)c2cc3ccncc3o2)c1 (centres unmarked) [Example 235, N-[[6-(4-methylpyridine-2-carbonyl)-6-azaspiro[2.5]octan-2-yl]methyl]furo[2,3-c]pyridine-2-carboxamide]
- IC50 [1]: 1560 nM

Compound: O=C(NCC1CC12CCN(C(=O)c1ccc(-c3ncn[nH]3)cc1)CC2)c1cc2ccncc2o1 (centres unmarked) [Example 254, N-[[6-(4-(1H-1,2,4-triazol-5-yl)benzoyl]-6-azaspiro[2.5]octan-2-yl]methyl]furo[2,3-c]pyridine-2-carboxamide]
- IC50 [1]: 13 nM

Compound: CC1(C)CC1C(=O)N1CCC2(CC1)CC2CNC(=O)c1cc2cnccc2[nH]1 (centres unmarked) [Example 364, N-[[6-(2,2-dimethylcyclopropanecarbonyl)-6-azaspiro[2.5]octan-2-yl]methyl]-1H-pyrrolo[3,2-c]pyridine-2-carboxamide]
- IC50 (A2780 cells, 72 hours, SRB): 110 nM

Compound: CC(C)(C)OC(=O)N1CCC2(CC1)CC(CNC(=O)c1cc3ccncc3o1)C2 [Example 194, tert-butyl 2-[(furo[2,3-c]pyridine-2-carbonylamino)methyl]-7-azaspiro[3.5]nonane-7-carboxylate]
- IC50 [1]: 2000 nM

Compound: CS(=O)(=O)N1CCCC(C(=O)N2CCC3(CC2)CC3CNC(=O)c2cc3ccncc3o2)C1 (centres unmarked) [Example 73, N-[[6-(1-methylsulfonylpiperidine-3-carbonyl)-6-azaspiro[2.5]octan-2-yl]methyl]furo[2,3-c]pyridine-2-carboxamide]
- IC50 [1]: 25.8 nM

Compound: O=C(NCC1CC12CCN(C(=O)c1ccc(CN3CCOCC3)cc1)CC2)c1cc2ccncc2o1 (centres unmarked) [Example 245, N-[[6-[4-(morpholinomcthyl)benzoyl]-6-azaspiro[2.5]octan-2-yl]methyl]furo[2,3-c]pyridine-2-carboxamide]
- IC50 [1]: 12.6 nM

Compound: Cn1cc(C(=O)N2CCC3(CC2)CC3CNC(=O)N2Cc3ccncc3C2)cn1 (centres unmarked) [Example 221, N-[[6-(1-methylpyrazole-4-carbonyl)-6-azaspiro[2.5]octan-2-yl]methyl]-1,3-dihydropyrrolo[3,4-c]pyridine-2-carboxamide]
- IC50 [1]: 25.4 nM
